# Measured values: ChEMBL document CHEMBL1121720, “Future directions in dopaminergic nervous system and dopaminergic agonists” (J Med Chem, 1981)
# Target: T1, Renin (Rattus norvegicus) (UniProt P08424)
# T1 sequence (whole entry): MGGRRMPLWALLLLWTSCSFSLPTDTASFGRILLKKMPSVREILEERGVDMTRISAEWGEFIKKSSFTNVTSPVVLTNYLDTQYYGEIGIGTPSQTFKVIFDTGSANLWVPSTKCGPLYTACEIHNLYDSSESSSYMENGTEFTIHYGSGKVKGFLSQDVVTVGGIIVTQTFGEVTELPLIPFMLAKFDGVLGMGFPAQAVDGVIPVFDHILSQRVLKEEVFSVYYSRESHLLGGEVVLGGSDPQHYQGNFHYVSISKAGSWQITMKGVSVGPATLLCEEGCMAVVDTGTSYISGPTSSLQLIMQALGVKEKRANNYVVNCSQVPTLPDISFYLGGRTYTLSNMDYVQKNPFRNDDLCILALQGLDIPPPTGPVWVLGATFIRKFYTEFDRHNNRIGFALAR
# Assay: Compound was evaluated for its ability to reduce plasma renin activity; Ranges is 20-40
# Type: functional, cell-free
# Design: scale not given: the % may be the effect or the level left
smiles,measurement,value
CC(C)C[C@H]1C(=O)N2CCCC2[C@]2(C)O[C@](NC(=O)C3C=C4c5cccc6[nH]c(Br)c(c56)C[C@H]4N(C)C3)(C(C)C)C(=O)N12 (stereo partly specified),Activity,20%
